Laboratory results reported in article PMC7582656, “The Hirudo Medicinalis Microbiome Is a Source of New Antimicrobial Peptides” (International Journal of Molecular Sciences, 2020).
In brackets after ≈: the same amount, converted by molar mass. Entries after “also recorded” stand apart in the source; their conditions may differ. Where two headings read alike, the source gives them in different places. Where no end group is shown, it is not given here.

How the values were obtained:
[1] = tested on: S. haemolyticus 527; format: cell-based, Staphylococcus haemolyticus
Protocol: (§1) The minimum inhibitory concentration (MIC) of peptides was determined by the standard microtiter dilution method, as performed previously. Briefly, the MIC was determined by growing the microorganisms in 96-well microtitration plates in the presence of a two-fold serial dilution of the peptides. […] Mueller Hinton broth (MHB, BD Difco, Thermo Fisher Scientific Inc., Waltham, MA, USA) was used for all cultures, including Bacillus subtilis 168HT, Staphylococcus aureus ST 88, Staphylococcus haemolyticus 527 (clinical isolate), and Escherichia coli K12 substr. MG1655 strains. Each experiment was performed in triplicate with positive (melittin (Merck Company Inc., Kenilworth, NJ, USA)) and negative (without peptide) inhibition controls.

[2] = tested on: McCoy cells; test: Cytotoxicity by live/dead assay and lactate dehydrogenase assay together; format: cell-based, mouse; conditions: 24 and 48 h, peptide at 4x MIC, live/dead fluorescence imaging and LDH assay
Protocol: We applied two techniques: Fluorescence imaging of dead and living cells (live/dead viability/cytotoxicity assay, Table 3, Figure S2) and a colorimetric assay (lactate dehydrogenase assay, Figure S3).
(§2) The cytotoxicity of peptides towards the mouse fibroblast cell line McCoy was determined via the LIVE/DEAD™ Viability/Cytotoxicity Kit (Thermo Fisher Scientific Inc., Waltham, MA, USA) according to the manufacturer′s recommendations, as performed previously. […] Melittin was used as a negative control, and McCoy cells treated without peptides were used as a positive control. After peptide exposure, cells were washed and then stained with PBS containing calcein AM and ethidium homodimer–1 at concentrations of 0.3 and 1.25 μM, respectively, for 30 min at 37 °C. After staining, the cells were washed twice with PBS. The images were captured using an epifluorescence microscope with the respective filter cubes from 10 occasionally selected fields of view captured for each well with a 20× objective. Images were captured for FITC and TRITC channels. The numbers of cells in both channels were quantified with the ImageJ software (version 1.48; RSB).
The cytotoxicity of peptides was also measured by a lactate dehydrogenase (LDH) assay kit (Merck Company Inc., Kenilworth, NJ, USA) according to the manufacturer′s recommendations. Briefly, 100 μL of McCoy cells per well were seeded on 96-well culture plates at a density of 2 × 10^5 cells/mL and incubated for 24 h at 37 °C with peptides at a final concentration equal to 4× MIC. Melittin was used as a negative control, and McCoy cells treated without peptides were used as a positive control. The growth medium without peptides was used as blank absorbance readings. After the peptide treatment, the plate with cells was centrifuged for 10 min at 900 g, and 50 μL of medium from each well was transferred to another plate. Fifty microlitres of the prepared LDH kit solution were added to each well. All manipulations were performed in the dark. The absorbance of the wells was measured after 15 min incubation in the dark at wavelengths of 495 and 690 nm using a Multiscan Ascent microtiter plate reader (Thermo Fisher Scientific Inc., Waltham, MA, USA). The specific absorbance of each sample was calculated according to the equation:Absorbance = A495 nm (Test) − A495 nm (Blank) − A690 nm (Test)
The percentage of cell viability was recalculated according to the control values.

[3] = tested on: S. aureus ST 88; format: cell-based, Staphylococcus aureus
Protocol: as §1

[4] = tested on: McCoy cells; test: LIVE/DEAD viability/cytotoxicity assay, fluorescent images; format: cell-based, mouse; conditions: 24 h
Protocol: as §2

[5] = tested on: B. subtilis 168HT; format: cell-based, Bacillus subtilis
Protocol: as §1

[6] = tested on: E. coli ATCC25922; conditions: ref Porto et al. [32]; cited from earlier work
Description: According to numerous studies, the actions of AMPs on bacteria are diverse and appear to be dependent on the target and the peptide concentration. The speed of the antimicrobial effect of different AMPs can vary greatly.

[7] = tested on: E. coli K12 substr MG1655; format: cell-based, Escherichia coli; conditions: two-fold serial dilution, 96-well plates, Mueller Hinton broth, triplicate
Protocol: as §1

Compound: VLIRGLIHMLRGG [pept_148]
- MIC [1]; 527: >100 µM
- Cytotoxicity (in words) [2]: did not exert any inhibition of cell growth even after 48 h; also recorded: did not cause cell death
- MIC ([3]; ST 88): >100 µM
- Cell Viability, % ([4]; 4 MIC): 98.3 ± 0.9%
- MIC ([5]; 168HT): 22.4 µM

Compound: FVKILAKLVNYAKN [pept_970]
- MIC [1]; 527: >100 µM
- Cytotoxicity (in words) [2]: strong cytotoxicity comparable to melittin
- MIC ([3]; ST 88): >100 µM
- Cell Viability, % ([4]; 4 MIC): 2.7 ± 2.1 %
- MIC ([5]; 168HT): 19.8 µM

Compound: guavanin 2
- Time of lytic effect [6]: 10 min

Compound: IGRHFKRRNSIWGICWF [pept_1303]
- Cytotoxicity (in words) [2]: reduced the cell viability to a lesser but still severe degree
- MIC ([3]; ST 88): >100 µM
- Cell Viability, % ([4]; 4 MIC): 25.1 ± 8.3 %
- MIC ([5]; 168HT): 14.8 µM

Compound: FLIGKAIKRKFCLRSVWNA-NH2 [pept_1545]
- Cytotoxicity (in words) [2]: did not exert any inhibition of cell growth even after 48 h; also recorded: did not cause cell death
- MIC ([3]; ST 88): >100 µM
- Cell Viability, % ([4]; 4 MIC): 98.7 ± 1.3%
- MIC ([5]; 168HT): 7.2 µM

Compound: IVKRFFRISYKLQSLKIIKGKRTFT [pept_84]
- MIC [1]; 527: 5.3 µM
- Cytotoxicity (in words) [2]: reduced the cell viability to a lesser but still severe degree
- MIC ([3]; ST 88): >100 µM
- Cell Viability, % ([4]; 4 MIC): 11.2 ± 7.4 %
- MIC ([5]; 168HT): 5.3 µM

Compound: CC[C@H](C)[C@H](NC(=O)CN)C(=O)NCC(=O)N[C@@H](C)C(=O)N[C@H](C(=O)N[C@@H](CC(C)C)C(=O)N[C@@H](CCCCN)C(=O)N[C@H](C(=O)N[C@@H](CC(C)C)C(=O)N[C@H](C(=O)N[C@H](C(=O)NCC(=O)N[C@@H](CC(C)C)C(=O)N1CCC[C@H]1C(=O)N[C@@H](C)C(=O)N[C@@H](CC(C)C)C(=O)N[C@H](C(=O)N[C@@H](CO)C(=O)N[C@@H](Cc1c[nH]c2ccccc12)C(=O)N[C@H](C(=O)N[C@@H](CCCCN)C(=O)N[C@@H](CCCNC(=N)N)C(=O)N[C@@H](CCCCN)C(=O)N[C@@H](CCCNC(=N)N)C(=O)N[C@@H](CCC(N)=O)C(=O)N[C@@H](CCC(N)=O)C(N)=O)[C@@H](C)CC)[C@@H](C)CC)[C@@H](C)O)[C@@H](C)O)C(C)C)C(C)C [Melittin, melittin, reference compound]
- MIC ([1]; S. haemolyticus 527 (clinical isolate), two-fold serial dilution, 96-well plates, Mueller Hinton broth, triplicate): 5.7 µM (≈ 16.2 µg/mL)
- MIC ([3]; S. aureus ST 88 (MRSA), two-fold serial dilution, 96-well plates, Mueller Hinton broth, triplicate): 1.5 µM (≈ 4.27 µg/mL)
- Cell Viability, % ([4]; McCoy cells, 37 °C, peptide at 4× MIC, calcein AM / ethidium homodimer-1 staining, fluorescent images, mean ± SD (n = 3)): 0.3 ± 0.1 %
- MIC ([5]; B. subtilis 168HT, two-fold serial dilution, 96-well plates, Mueller Hinton broth, triplicate): 1.5 µM (≈ 4.27 µg/mL)
- MIC [7]: 5.7 µM (≈ 16.2 µg/mL)
- Time to kill E. coli ATCC25922 [6]: 10 s

Compound: KKGKSFKQLHIIVHLVKSWLRTILTHI [pept_352]
- MIC [1]; 527: 10 µM
- Cytotoxicity (in words) [2]: strong cytotoxicity comparable to melittin
- MIC ([3]; ST 88): 19.9 µM
- Cell Viability, % ([4]; 4 MIC): 0.2 ± 0.1 %
- MIC ([5]; 168HT): 10 µM
